According to US6464978B1, “Vaccination and methods against multiple sclerosis resulting from pathogenic responses by specific T cell populations” (The Immune Response Corporation, priority 1989, dated 2002):
Values joined by “and” are separate entries in the source; they are usually repeats but may differ in a detail not shown here. Equal values may be shown once. “Also recorded” adds a separate entry of the source.

How the values were obtained:
EAE [1] = assay: Vaccination against EAE in the Lewis rat model, daily clinical scoring after MBP challenge; type: in vivo, Lewis rats; set-up: key to EAE clinical score, Days After Challenge 18 / EAE clinical score, Days After Challenge 10 / EAE clinical score, Days After Challenge 11 / EAE clinical score, Days After Challenge 12 / EAE clinical score, Days After Challenge 13 / EAE clinical score, Days After Challenge 14 / EAE clinical score, Days After Challenge 15 / EAE clinical score, Days After Challenge 16 / EAE clinical score, Days After Challenge 17 / EAE clinical score, Days After Challenge 19 / EAE clinical score, Days After Challenge 20: —: no signs; 1: limp tail; 2: hind leg weakness; 3: hind leg paralysis; conditions: for EAE clinical score, Days After Challenge 10: day 10; for EAE clinical score, Days After Challenge 11: day 11; for EAE clinical score, Days After Challenge 12: day 12; for EAE clinical score, Days After Challenge 13: day 13; for EAE clinical score, Days After Challenge 14: day 14; for EAE clinical score, Days After Challenge 15: day 15; for EAE clinical score, Days After Challenge 16: day 16; for EAE clinical score, Days After Challenge 17: day 17; for EAE clinical score, Days After Challenge 18: day 18
Protocol: Female Lewis rats, (Charles River Laboratories, Raleigh-Durham, N.C.) were immunized in each hind foot pad with 50 μg of guinea pig myelin basic protein emulsified in complete Freund's adjuvant. The first signs of disease were typically observed 9-11 days post-immunization. Disease severity is scored on a three point scale as follows: 1=limp tail; 2=hind leg weakness; 3=hind leg paralysis. Following a disease course of approximately four to six days, most rats spontaneously recovered and were refractory to subsequent EAE induction.
[…]. KLH-VDJ conjugate was administered at a dose equivalent to 10 μg of KLH per rat. Twenty-nine days later each rat was challenged with 50 μg of guinea pig myelin basic protein in complete Freund's adjuvant in the front footpads. Animals were monitored daily beginning at day 9 for clinical, signs of EAE and were scored as described above.
The preparation, administration and evaluation of these vaccines were conducted as described in Examples I through III with the following exceptions: 50 μg of the individual VDJ peptides were incorporated into vaccine formulations containing CFA; neither vaccinations in IFA nor vaccinations with peptides conjugated to KLH were conducted. Control animals were untreated prior to MBP challenge as in Example III or were vaccinated with emulsions of PBS and CFA to assess the protective effect of adjuvant alone. […]

EAE [2] = assay: Histologic examination of the CNS of vaccinated, MBP-challenged rats; type: in vivo; conditions: Lewis rats, 50 μg peptide in CFA, MBP challenge
Text: Disease was characterized by severe paralysis and wasting, persisted for 4 to 6 days and spontaneously remitted.
Even sub-clinical signs of disease were abrogated.

[3] = Lewis rats, 50 μg peptide in CFA, MBP challenge
[4] = one rat per line, 50 μg rat VDJ peptide in CFA
[5] = one rat per line, 50 μg Vβ8 peptide in CFA
[6] = one rat per line, 50 μg JαTA39 peptide in CFA
[7] = one rat per line, 5 μg VDJ or KLH-VDJ equivalent to 10 μg KLH, in IFA or CFA, hind footpads, MBP challenge 29 days later

Sequence	protection against clinical EAE (animals protected) (EAE [1]; [3])	EAE clinical score, Days After Challenge 10 (EAE [1]; [4])	EAE clinical score, Days After Challenge 11 (EAE [1]; [4])	EAE clinical score, Days After Challenge 12 (EAE [1]; [4])	EAE clinical score, Days After Challenge 13 (EAE [1]; [4])	EAE clinical score, Days After Challenge 14 (EAE [1]; [4])	EAE clinical score, Days After Challenge 15 (EAE [1]; [4])	EAE clinical score, Days After Challenge 16 (EAE [1]; [4])	EAE clinical score, Days After Challenge 17 (EAE [1]; [4])	EAE clinical score, Days After Challenge 18 (EAE [1]; [4])	onset, severity and duration of EAE (EAE [1]; [3])	other results
A S S D - S S N T E (ASSDSSNTE) [IR9b]	complete protection in all four animals	—	—	—	—	—	—	—	—	—		histologic lesions / T cell infiltration of the CNS (EAE [2]): no histologic lesions characteristic of disease were found in any of the four animals
C A S S D - S G N - V L Y F G E G S R (CASSDSGNVLYFGEGSR) [IR3]		1 and — (2×)	3 and — (2×)	3 and 2 and —	3 (2×) and —	2 and 3 and —	—	—	—	—	delays in onset were observed in some; also recorded: others showed both delayed onset as well as decreased severity and/or duration of disease	
C A S S D - S G N T E V F F G K (CASSDSGNTEVFFGK) [IR2]		—	—	1 and — (2×)	3 and — (2×)	3 and 2 and 1	3 and 2 and —	— (2×) and 3	— (2×) and 3	—	delays in onset were observed in some; also recorded: others showed both delayed onset as well as decreased severity and/or duration of disease	
C A S S D - S S N T E V F F G K (CASSDSSNTEVFFGK) [IR1]		—	—	—	2 and — and 1	1	— and 3 and 1	— (2×) and 1	—	—	delays in onset were observed in some; also recorded: others showed both delayed onset as well as decreased severity and/or duration of disease	
DMGHGLRLIHYSYDVNSTEK [IR7]	One animal was completely protected										Delayed onset as well as decreased severity and duration of disease was observed in one animal	EAE clinical score, Days After Challenge 10 (EAE [1]; [5]): —; EAE clinical score, Days After Challenge 11 (EAE [1]; [5]): —; EAE clinical score, Days After Challenge 12 (EAE [1]; [5]): 1 and — (2×); EAE clinical score, Days After Challenge 13 (EAE [1]; [5]): 2 and — (2×); EAE clinical score, Days After Challenge 14 (EAE [1]; [5]): 3 and 1 and —; EAE clinical score, Days After Challenge 15 (EAE [1]; [5]): 3 and 1 and —; EAE clinical score, Days After Challenge 16 (EAE [1]; [5]): 3 and — (2×); EAE clinical score, Days After Challenge 17 (EAE [1]; [5]): —; EAE clinical score, Days After Challenge 18 (EAE [1]; [5]): —
RFGAGTRLTVK [IR5]	Two of three animals were totally protected										in the third, disease onset was markedly delayed	effectiveness of vaccination compared with other peptides (EAE [1]; [3]): more effective than those observed with the mouse VDJ peptide or the Vβ8 peptide; EAE clinical score, Days After Challenge 10 (EAE [1]; [6]): —; EAE clinical score, Days After Challenge 11 (EAE [1]; [6]): —; EAE clinical score, Days After Challenge 12 (EAE [1]; [6]): —; EAE clinical score, Days After Challenge 13 (EAE [1]; [6]): —; EAE clinical score, Days After Challenge 14 (EAE [1]; [6]): —; EAE clinical score, Days After Challenge 15 (EAE [1]; [6]): 2 and — (2×); EAE clinical score, Days After Challenge 16 (EAE [1]; [6]): 1 and — (2×); EAE clinical score, Days After Challenge 17 (EAE [1]; [6]): 1 and — (2×); EAE clinical score, Days After Challenge 18 (EAE [1]; [6]): 1 and — (2×); EAE clinical score, Days After Challenge 19 (EAE [1]; day 19, one rat per line, 50 μg JαTA39 peptide in CFA): 1 and — (2×); EAE clinical score, Days After Challenge 20 (EAE [1]; day 20, one rat per line, 50 μg JαTA39 peptide in CFA): —; histologic lesions / T cell infiltration of the CNS (EAE [2]): the two animals which were completely protected showed no histologic evidence of T cell infiltration of the CNS
SGDAGGGYE [VDJ (CFA), free VDJ peptide in PBS emulsified with complete Freund's adjuvant]												EAE clinical score, Days After Challenge 10 (EAE [1]; [7]): —; EAE clinical score, Days After Challenge 11 (EAE [1]; [7]): —; EAE clinical score, Days After Challenge 12 (EAE [1]; [7]): —; EAE clinical score, Days After Challenge 13 (EAE [1]; [7]): 1 and — (2×); EAE clinical score, Days After Challenge 14 (EAE [1]; [7]): 3 and 1 and —; EAE clinical score, Days After Challenge 15 (EAE [1]; [7]): 3 and 1 and —; EAE clinical score, Days After Challenge 16 (EAE [1]; [7]): 3 and 1 and —; EAE clinical score, Days After Challenge 17 (EAE [1]; [7]): 2 and — (2×); EAE clinical score, Days After Challenge 18 (EAE [1]; [7]): —
SGDAGGGYE [VDJ (IFA), free VDJ peptide in PBS emulsified with incomplete Freund's adjuvant]												EAE clinical score, Days After Challenge 10 (EAE [1]; [7]): —; EAE clinical score, Days After Challenge 11 (EAE [1]; [7]): —; EAE clinical score, Days After Challenge 12 (EAE [1]; [7]): 2 and 1 and —; EAE clinical score, Days After Challenge 13 (EAE [1]; [7]): 3; EAE clinical score, Days After Challenge 14 (EAE [1]; [7]): 3; EAE clinical score, Days After Challenge 15 (EAE [1]; [7]): 3; EAE clinical score, Days After Challenge 16 (EAE [1]; [7]): — and 2 (2×); EAE clinical score, Days After Challenge 17 (EAE [1]; [7]): —; EAE clinical score, Days After Challenge 18 (EAE [1]; [7]): —
